From US20240083857A1, “2-Methyl-Quinazolines” (Bayer Pharma Aktiengesellschaft, priority 2017, published 2024) come the findings set out here.

The target in test [1] is human SOS1 (nucleotide exchange of K-Ras^G12C) (Homo sapiens, UniProt Q07889). Kind of test: Biochemical assay 2: K-Ras^G12C activation assay by hSOS1 at high GTP concentration (HTRF). As to conditions: high GTP; read-out: Assay 2 (KRAS-Activation by SOS high GTP) activity expressed as IC50. In general terms: Time-resolved FRET reads energy transfer from a long-lived donor to a nearby acceptor.

Test [2] addresses human SOS1 (loading of human K-Ras^G12C-GDP with fluorescent GTP-analog) (Homo sapiens, UniProt Q07889). Briefly: Biochemical assay 3: K-Ras^G12C activation assay by hSOS1 (HTRF). As to conditions: no GTP; read-out: Assay 3 (KRAS-Activation by SOS no GTP) activity expressed as IC50.

For orientation: IC50 means the concentration that inhibits the measured activity by half. Turning to `COc1cc2nc(C)nc(N[C@H](C)c3cccc(-c4cn[nH]c4)c3)c2cc1OC(C)C` [Example 353, 7-methoxy-2-methyl-6-(propan-2-yloxy)-N-{(1R)-1-[3-(1H-pyrazol-4-yl)phenyl]ethyl}quinazolin-4-amine], the results for the IC50 in test [1] and in test [2] were 420 nM and 453 nM, respectively.
Taken in the same sequence, the figures for `Cc1nc(N[C@H](C)c2ccccc2)c2cc(N=S(C)(C)=O)ccc2n1` [Example 30, 6-{[dimethyl(oxido)-lambda6-sulfanylidene]amino}-2-methyl-N-[(1R)-1-phenylethyl]quinazolin-4-amine] were 1100 nM and 2910 nM.
For `COCCOc1cc2c(N[C@H](C)c3cccc(-c4cn[nH]c4)c3)nc(C)nc2cc1OC` [Example 348, 7-methoxy-6-(2-methoxyethoxy)-2-methyl-N-{(1R)-1-[3-(1H-pyrazol-4-yl)phenyl]-ethyl}quinazolin-4-amine], the values for the half-maximal inhibitory concentration (IC50) in test [1] and in test [2] were 816 nM and 753 nM, respectively.
For the compound `CCOc1cc2c(N[C@H](C)c3cccc(-c4cnn(CC)c4)c3)nc(C)nc2cc1OC` [Example 356, 6-ethoxy-N-{(1R)-1-[3-(1-ethyl-1H-pyrazol-4-yl)phenyl]ethyl}-7-methoxy-2-methylquinazolin-4-amine], the IC50 is 777 nM in test [1] and 933 nM in test [2].
For `CCCCOc1cc2c(N[C@H](C)c3cccc(-c4cn[nH]c4)c3)nc(C)nc2cc1OC` [Example 350, 6-butoxy-7-methoxy-2-methyl-N-{(1R)-1-[3-(1H-pyrazol-4-yl)phenyl]ethyl}quinazolin-4-amine] the same measures were 736 nM and 850 nM.
